Data published in ChEMBL document CHEMBL1201862, “PubChem BioAssay data set” (2004).
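A five-concentration, 48-hour dose response in 96-well plates underlies each endpoint, interpolated linearly between surrounding concentrations. Abbreviation: GI50, concentration required for 50% inhibition of growth.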 Active and inactive are the calls of the source. Rule as the data show it: active = GI50 up to about 1.1 µM and inactive = higher.

Tests used:
Assay in all cases: NCI-60 cell line screen, 48 h
786-0 = test system: 786-0
A549 = test system: A549
COLO 205 = test system: COLO 205
DU-145 = test system: DU-145
EKVX = test system: EKVX
HL-60 = test system: HL-60
HOP-62 = test system: HOP-62
HOP-92 = test system: HOP-92
HT-29 = test system: HT-29
LOX IMVI = test system: LOX IMVI
MCF7 = test system: MCF7
MDA-MB-231 = test system: MDA-MB-231
NCI-H226 = test system: NCI-H226
NCI-H460 = test system: NCI-H460
NCI/ADR-RES = test system: NCI/ADR-RES
RPMI-8226 = test system: RPMI-8226
SK-MEL-2 = test system: SK-MEL-2
T47D = test system: T47D
UACC-62 = test system: UACC-62
SR = test system: SR

SMILES	GI50 (786-0)	GI50 (A549)	GI50 (COLO 205)	GI50 (DU-145)	GI50 (EKVX)	GI50 (HL-60)	GI50 (HOP-62)	GI50 (HOP-92)	GI50 (HT-29)	GI50 (LOX IMVI)	GI50 (MCF7)	GI50 (MDA-MB-231)	GI50 (NCI-H226)	GI50 (NCI-H460)	GI50 (NCI/ADR-RES)	GI50 (RPMI-8226)	GI50 (SK-MEL-2)	GI50 (T47D)	GI50 (UACC-62)	GI50 (SR)
O=C(O)c1ccccc1-c1ccccc1C(=O)Nc1ccc2c(c1)nc(O)c1ccccc12	> 100 µM (inactive)	> 100 µM (inactive)	> 100 µM (inactive)	> 100 µM (inactive)	> 100 µM (inactive)	94.8 µM (inactive)	> 100 µM (inactive)	> 100 µM (inactive)	> 100 µM (inactive)	48.9 µM (inactive)	> 100 µM (inactive)	88.9 µM (inactive)	> 100 µM (inactive)	> 100 µM (inactive)	> 100 µM (inactive)	> 100 µM (inactive)	87.9 µM (inactive)	> 100 µM (inactive)	59.6 µM (inactive)	
O=C1c2ccccc2C(=O)N1C1(C(=O)NC2(C(=O)O)CCCC2)CCCC1	> 100 µM (inactive)	> 100 µM (inactive)	> 100 µM (inactive)	> 100 µM (inactive)	> 100 µM (inactive)		> 100 µM (inactive)		> 100 µM (inactive)	> 100 µM (inactive)	> 100 µM (inactive)	> 100 µM (inactive)	> 100 µM (inactive)		> 100 µM (inactive)	> 100 µM (inactive)	> 100 µM (inactive)	> 100 µM (inactive)	> 100 µM (inactive)	> 100 µM (inactive)
Cc1cc2c(s1)C(N)CC2=O (configuration not stated)	> 100 µM (inactive)	> 100 µM (inactive)	> 100 µM (inactive)	> 100 µM (inactive)	> 100 µM (inactive)	> 100 µM (inactive)	> 100 µM (inactive)		> 100 µM (inactive)		> 100 µM (inactive)	> 100 µM (inactive)		> 100 µM (inactive)	> 100 µM (inactive)	> 100 µM (inactive)	> 100 µM (inactive)	> 100 µM (inactive)	> 100 µM (inactive)	> 100 µM (inactive)
CC(C)OC(=O)/C=C/C(=O)O/C=C/[N+](=O)[O-]	29.2 µM (inactive)	26.9 µM (inactive)	16.6 µM (inactive)	30.4 µM (inactive)	18.2 µM (inactive)		34 µM (inactive)		24.5 µM (inactive)	17.5 µM (inactive)	23 µM (inactive)	36.5 µM (inactive)	39.9 µM (inactive)	60.7 µM (inactive)	8.55 µM (inactive)	15.5 µM (inactive)	20.2 µM (inactive)	12.7 µM (inactive)	21.3 µM (inactive)	24.4 µM (inactive)
CC(C)c1cccc(C(=O)NCCN(C)C)c1[N+](=O)[O-]	> 100 µM (inactive)	80.2 µM (inactive)	> 100 µM (inactive)	> 100 µM (inactive)		> 100 µM (inactive)	> 100 µM (inactive)		> 100 µM (inactive)		> 100 µM (inactive)	> 100 µM (inactive)	> 100 µM (inactive)	> 100 µM (inactive)	> 100 µM (inactive)		> 100 µM (inactive)	> 100 µM (inactive)	> 100 µM (inactive)	> 100 µM (inactive)
NC1(CCNC(=O)c2ccccc2)CCN(C(=O)c2ccccc2)CC1	> 100 µM (inactive)	> 100 µM (inactive)	41.7 µM (inactive)	> 100 µM (inactive)	> 100 µM (inactive)			50.7 µM (inactive)	> 100 µM (inactive)		> 100 µM (inactive)	> 10 µM (inactive)	> 100 µM (inactive)	> 100 µM (inactive)	> 100 µM (inactive)	> 100 µM (inactive)	34.4 µM (inactive)	> 100 µM (inactive)	> 100 µM (inactive)	> 100 µM (inactive)
CC1(C)Oc2ccc3c(=O)cc(-c4cccs4)oc3c2C1C(=O)O (configuration not stated)	> 100 µM (inactive)	> 100 µM (inactive)	> 100 µM (inactive)	> 100 µM (inactive)	> 100 µM (inactive)	> 100 µM (inactive)	> 100 µM (inactive)		> 100 µM (inactive)		> 100 µM (inactive)	> 100 µM (inactive)	> 100 µM (inactive)		> 100 µM (inactive)		> 100 µM (inactive)	> 100 µM (inactive)	> 10 µM (inactive)	> 100 µM (inactive)
O=C(CCc1ccccc1)ON1C(=S)C(c2ccccc2)(c2ccccc2)N=C1Sc1ccccc1	26.5 µM (inactive)	38.1 µM (inactive)	35.5 µM (inactive)	58.2 µM (inactive)	26.6 µM (inactive)	31.6 µM (inactive)	41.8 µM (inactive)	> 100 µM (inactive)	24.5 µM (inactive)	5.52 µM (inactive)	33.7 µM (inactive)	> 100 µM (inactive)	45.3 µM (inactive)	12.4 µM (inactive)	33.7 µM (inactive)	22 µM (inactive)	29.8 µM (inactive)	59.4 µM (inactive)	55.1 µM (inactive)	
COC(=O)c1cc(=O)n(-c2ccc3nn(C)nc3c2)cc1C(=O)OC	> 100 µM (inactive)	> 100 µM (inactive)	> 100 µM (inactive)	> 100 µM (inactive)	> 100 µM (inactive)		> 100 µM (inactive)	> 100 µM (inactive)	> 100 µM (inactive)		> 100 µM (inactive)	> 100 µM (inactive)	> 100 µM (inactive)	> 100 µM (inactive)	> 100 µM (inactive)	> 100 µM (inactive)	> 100 µM (inactive)	> 100 µM (inactive)	> 100 µM (inactive)	> 100 µM (inactive)
COC(=O)c1ccc2[nH]c3c(c2c1)CC(=O)Nc1ccccc1-3	> 100 µM (inactive)	> 100 µM (inactive)	> 100 µM (inactive)	45.7 µM (inactive)	26.2 µM (inactive)		24.3 µM (inactive)		> 100 µM (inactive)	> 100 µM (inactive)	> 100 µM (inactive)	12.4 µM (inactive)	7.31 µM (inactive)	> 100 µM (inactive)	> 100 µM (inactive)	> 100 µM (inactive)	> 100 µM (inactive)	> 100 µM (inactive)	> 100 µM (inactive)	7.28 µM (inactive)
c1ccc(-c2cccc(-c3ccccn3)n2)nc1 [TERPYRIDINE]	0.368 µM (active)	0.384 µM (active)	0.254 µM (active)	0.324 µM (active)	0.476 µM (active)	0.173 µM (active)	0.52 µM (active)		0.5 µM (active)		0.394 µM (active)	0.397 µM (active)		0.382 µM (active)	0.321 µM (active)	0.315 µM (active)	1.17 µM (inactive)	1.1 µM (active)	0.736 µM (active)	0.317 µM (active)
